Data taken from patent US11566007B2, “Ras inhibitors” (Revolution Medicines, Inc., priority 2019, dated 2023).
Values joined by “and” are separate entries in the source; they are usually repeats but may differ in a detail not shown here. Equal values may be shown once. Read-outs that look alike come from different tables or passages of the source.

What was measured:
KRAS G12D = KRAS G12D (Homo sapiens (Human), UniProt P01116+P62937, G12D); assay: Ras-Raf (BRAF RBD) disruption / FRET / MOA assay, KRAS G12D; assay type: biochemical; settings: Ras-Raf disruption/FRET/MOA assay; class symbols; read-out: KRAS G12D FRET data IC50
Procedure, shortened: (§1)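 Ternary complex formation (Ras–compound–cyclophilin A) displacing BRAF RBD, monitored by TR-FRET. Three hours at 25° C with compound (top 30 μM final), then 1.5 h with the labelled antibodies. Lower ratio than DMSO indicates disruption; IC50 reported.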

NRAS G12C = NRAS G12C (Homo sapiens (Human), UniProt P01111+P62937, G12C); assay: Ras-Raf (BRAF RBD) disruption / FRET / MOA assay, NRAS G12C; assay type: biochemical; settings: read-out: IC50* NRAS G12C FRET data
Procedure, shortened: as §1

K-Ras G13C = K-Ras G13C (Homo sapiens (Human), UniProt P01116+P62937, G13C); assay: Ras-Raf (BRAF RBD) disruption / FRET / MOA assay, KRAS G13C; assay type: biochemical; settings: KRAS G13C; Ras-Raf disruption/FRET/MOA assay; read-out: IC50* KRAS G13C FRET data
Procedure, shortened: as §1

NRAS WT = NRAS WT (Homo sapiens (Human), UniProt P01111+P62937); assay: Ras-Raf (BRAF RBD) disruption / FRET / MOA assay, NRAS WT; assay type: biochemical; settings: read-out: IC50* NRAS WT FRET data
Procedure, shortened: (§2)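 Compounds were tested as a 10-point 3-fold dilution series from 30 μM final for their ability to drive ternary complex formation between nucleotide-loaded Ras and cyclophilin A, displacing the BRAF RBD. After 3 h at 25° C., anti-His Eu-W1024 (10 nM) and anti-GST allophycocyanin (50 nM) were added for 1.5 h. A TR-FRET ratio decrease versus DMSO gave IC50.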

NRAS Q61R = NRAS Q61R (Homo sapiens (Human), UniProt P01111+P62937, Q61R); assay: Ras-Raf (BRAF RBD) disruption / FRET / MOA assay, NRAS Q61R; assay type: biochemical; settings: NRAS Q61R; Ras-Raf disruption/FRET/MOA assay; read-out: IC50* NRAS Q61R FRET data
Procedure, shortened: as §2

NCI-H358 (K-Ras G12C) = assay: CellTiter-Glo cell viability assay, NCI-H358; assay type: cell-based, human; settings: NCI-H358, 5-day treatment, class symbols, read-out: Additional H358 Cell Viability assay data (K-Ras G12C, IC50)
Procedure, shortened: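 Four-parameter logistic fits were applied to luminescence data normalized against DMSO-treated wells. Readings were taken on day 5 following direct compound addition, after roughly 30 minutes at room temperature.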

KRAS G12V = KRAS G12V (Homo sapiens (Human), UniProt P01116+P62937, G12V); assay: Ras-Raf (BRAF RBD) disruption / FRET / MOA assay, KRAS G12V; assay type: biochemical; settings: read-out: IC50* KRAS G12V FRET data
Procedure, shortened: as §1

KRAS G12V, sequence (P01116-2 other isoform, or with tags, fused parts or gaps G12V): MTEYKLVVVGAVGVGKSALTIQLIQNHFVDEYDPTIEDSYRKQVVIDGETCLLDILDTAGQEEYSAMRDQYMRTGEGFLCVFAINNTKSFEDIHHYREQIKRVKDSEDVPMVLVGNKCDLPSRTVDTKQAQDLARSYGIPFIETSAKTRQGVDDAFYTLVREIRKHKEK
KRAS G12V, sequence (P62937 whole entry): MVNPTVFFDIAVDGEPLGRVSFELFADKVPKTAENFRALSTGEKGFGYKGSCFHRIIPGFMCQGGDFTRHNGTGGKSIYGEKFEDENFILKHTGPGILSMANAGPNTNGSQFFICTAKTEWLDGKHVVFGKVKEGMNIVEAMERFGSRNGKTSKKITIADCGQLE
K-Ras G13C, sequence (P01116-2 other isoform, or with tags, fused parts or gaps G13C): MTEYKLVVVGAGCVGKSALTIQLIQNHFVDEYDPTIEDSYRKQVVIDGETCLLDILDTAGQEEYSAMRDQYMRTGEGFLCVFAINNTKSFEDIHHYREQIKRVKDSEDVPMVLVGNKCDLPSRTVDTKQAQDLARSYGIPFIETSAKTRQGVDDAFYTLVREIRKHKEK
K-Ras G13C, sequence (P62937 whole entry): as the sequence (P62937 whole entry) above
NRAS G12C, sequence (P01111 whole entry G12C): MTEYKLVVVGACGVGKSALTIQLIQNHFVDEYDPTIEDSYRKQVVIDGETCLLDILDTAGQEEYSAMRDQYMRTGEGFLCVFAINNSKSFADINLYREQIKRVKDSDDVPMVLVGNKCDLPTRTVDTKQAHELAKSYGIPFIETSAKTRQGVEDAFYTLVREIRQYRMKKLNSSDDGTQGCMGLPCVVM
NRAS G12C, sequence (P62937 whole entry): as the sequence (P62937 whole entry) above
NRAS WT, sequence (P01111 whole entry): as the sequence (P01111 whole entry G12C) above, with C12G counted along it
NRAS WT, sequence (P62937 whole entry): as the sequence (P62937 whole entry) above
KRAS G12D, sequence (P01116-2 other isoform, or with tags, fused parts or gaps G12D): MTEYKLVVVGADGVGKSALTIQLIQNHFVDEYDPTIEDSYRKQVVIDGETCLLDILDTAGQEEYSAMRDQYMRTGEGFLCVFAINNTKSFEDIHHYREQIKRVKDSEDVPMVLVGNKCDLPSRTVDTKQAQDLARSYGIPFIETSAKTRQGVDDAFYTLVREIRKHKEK
KRAS G12D, sequence (P62937 whole entry): as the sequence (P62937 whole entry) above
NRAS Q61R, sequence (P01111 whole entry Q61R): as the sequence (P01111 whole entry G12C) above, with C12G, Q61R counted along it
NRAS Q61R, sequence (P62937 whole entry): as the sequence (P62937 whole entry) above

## C=CC(=O)N1CC[C@H](C(=O)N(C)[C@H](C(=O)N[C@H]2Cc3cc(O)cc(c3)-c3ccc4c(c3)c(c(-c3cccnc3[C@H](CC)OC)n4CC)CC(C)(C)COC(=O)[C@@H]3CCCN(N3)C2=O)C(C)C)C1 (atropisomer, axis not shown) [Example A181]
KRAS G12D
  IC50: 1000 to 10000 nM and > 10000 nM
NRAS G12C
  IC50: 10 to 100 nM and 100 to 1000 nM
K-Ras G13C
  IC50: 100 to 1000 nM and 1000 to 10000 nM
NRAS WT
  IC50: 100 to 1000 nM
NRAS Q61R
  IC50: 100 to 1000 nM
NCI-H358 (K-Ras G12C); Homo sapiens, NCI-H358, 120 h
  IC50: 10 to 100 nM
KRAS G12V
  IC50: 100 to 1000 nM and 1000 to 10000 nM

## C=CC(=O)N1CC[C@H](C(=O)N(C)[C@H](C(=O)N[C@H]2Cc3nc(ns3)-c3ccc4c(c3)c(c(-c3cccnc3[C@H](C)OC)n4CC)CC(C)(C)COC(=O)[C@@H]3CCCN(N3)C2=O)C(C)C)C1 (atropisomer, axis not shown) [Example A202]
KRAS G12D
  IC50: > 10000 nM
NRAS G12C
  IC50: 1000 to 10000 nM
K-Ras G13C
  IC50: > 10000 nM
NRAS WT
  IC50: 1000 to 10000 nM
NRAS Q61R
  IC50: > 10000 nM
NCI-H358 (K-Ras G12C); Homo sapiens, NCI-H358, 120 h
  IC50: 10 to 100 nM
KRAS G12V
  IC50: > 10000 nM

## C=CC(=O)N1CC[C@H](C(=O)N(C)[C@H](C(=O)N[C@H]2Cc3cc(O)cc(c3)-c3ccc4c(c3)c(c(-c3cccnc3[C@@H](OC)C3CC3)n4CC)CC(C)(C)COC(=O)[C@@H]3CCCN(N3)C2=O)C(C)C)C1 (atropisomer, axis not shown) [Example A207]
KRAS G12D
  IC50: 1000 to 10000 nM
NRAS G12C
  IC50: 10 to 100 nM
K-Ras G13C
  IC50: 100 to 1000 nM
NRAS WT
  IC50: 100 to 1000 nM
NRAS Q61R
  IC50: 100 to 1000 nM
NCI-H358 (K-Ras G12C)
  IC50: 10 to 100 nM

## C=CC(=O)N1CC[C@H](C(=O)N(C)[C@H](C(=O)N[C@H]2Cc3cc(O)cc(c3)-c3ccc4c(c3)c(c(-c3cccnc3[C@@H]3CCCO3)n4CC)CC(C)(C)COC(=O)[C@@H]3CCCN(N3)C2=O)C(C)C)C1 (atropisomer, axis not shown) [Example A281]
KRAS G12D
  IC50: 1000 to 10000 nM
NRAS G12C
  IC50: 10 to 100 nM and 100 to 1000 nM
K-Ras G13C
  IC50: 10 to 100 nM and 100 to 1000 nM
NRAS WT
  IC50: 100 to 1000 nM
NRAS Q61R
  IC50: 100 to 1000 nM
NCI-H358 (K-Ras G12C); Homo sapiens, NCI-H358, 120 h
  IC50: 10 to 100 nM
KRAS G12V
  IC50: 100 to 1000 nM

## C=CC(=O)N1CC[C@H](C(=O)N(C)[C@H](C(=O)N[C@H]2Cc3nc(n(C)n3)-c3ccc4c(c3)c(c(-c3cccnc3[C@H](C)OC)n4CC)CC(C)(C)COC(=O)[C@@H]3CCCN(N3)C2=O)C(C)C)C1 (atropisomer, axis not shown) [Example A314]
KRAS G12D
  IC50: 1000 to 10000 nM
NRAS G12C
  IC50: 100 to 1000 nM
K-Ras G13C
  IC50: 100 to 1000 nM
NRAS WT
  IC50: 1000 to 10000 nM
NRAS Q61R
  IC50: 100 to 1000 nM
NCI-H358 (K-Ras G12C); Homo sapiens, NCI-H358, 120 h
  IC50: 100 to 1000 nM
KRAS G12V
  IC50: 1000 to 10000 nM

## C=CC(=O)N1CC[C@H](C(=O)N(C)[C@H](C(=O)N[C@H]2Cc3csc(n3)-c3ccc4c(c3)c(c(-c3cccnc3[C@H](C)OC)n4CC)CC(C)(C)COC(=O)[C@@H]3CCCN(N3)C2=O)C(C)C)C1 (atropisomer, axis not shown) [Example A330]
KRAS G12D
  IC50: 1000 to 10000 nM
NRAS G12C
  IC50: 100 to 1000 nM
K-Ras G13C
  IC50: 1000 to 10000 nM
NRAS WT
  IC50: 1000 to 10000 nM
NRAS Q61R
  IC50: 1000 to 10000 nM
NCI-H358 (K-Ras G12C); Homo sapiens, NCI-H358, 120 h
  IC50: 10 to 100 nM
KRAS G12V
  IC50: 1000 to 10000 nM

## C=CC(=O)N1CC[C@]2(C1)CN(C(=O)N(C)[C@H](C(=O)N[C@H]1Cc3nc(cs3)-c3ccc4c(c3)c(c(-c3cccnc3[C@H](C)OC)n4CC)CC(C)(C)COC(=O)[C@@H]3CCCN(N3)C1=O)C(C)C)CCO2 (atropisomer, axis not shown) [Example A354]
KRAS G12D
  IC50: 100 to 1000 nM
NRAS G12C
  IC50: 10 to 100 nM
K-Ras G13C
  IC50: 100 to 1000 nM
NRAS WT
  IC50: 100 to 1000 nM
NRAS Q61R
  IC50: 100 to 1000 nM
NCI-H358 (K-Ras G12C); Homo sapiens, NCI-H358, 120 h
  IC50: 10 to 100 nM
KRAS G12V
  IC50: 100 to 1000 nM

## C=CC(=O)N1CC[C@@]2(C1)OCN([C@H](C(=O)N[C@H]1Cc3cccc(c3)-c3ccc4c(c3)c(c(-c3cccnc3[C@H](C)OC)n4CC)CC(C)(C)COC(=O)[C@@H]3CCCN(N3)C1=O)C(C)C)C2=O (atropisomer, axis not shown) [Example A358]
KRAS G12D
  IC50: 1000 to 10000 nM
NRAS G12C
  IC50: 100 to 1000 nM
K-Ras G13C
  IC50: 100 to 1000 nM
NRAS WT
  IC50: 100 to 1000 nM
NRAS Q61R
  IC50: 1000 to 10000 nM
NCI-H358 (K-Ras G12C); Homo sapiens, NCI-H358, 120 h
  IC50: 10 to 100 nM
KRAS G12V
  IC50: 1000 to 10000 nM
